Laboratory results taken from patent publication US8518965B2, “Compositions and methods for treating cancer” (Trustees of Dartmouth College, priority 2009, dated 2013).
Where two headings read alike, the source gives them in different places. Marks after values point to notes of the source that are not given here. Blank lines part the entries; values can stand above or below the molecule they belong to.

How the values were obtained:
[1] = tested on: SF 295 human glioblastoma cells; test: Colony formation assay, SF 295 cells; assay type: cell-based; conditions: for IC50: Homo sapiens, SF 295 cells, 72 hours with compound, colonies counted after 10 days (Example 10), read-out: IC50; for Killing / inhibition of the growth of SF 295 human glioblastoma cells (in words): Example 10
Experimental: (§1) NCI/ADR-RES human breast cancer cells (500 cells), HCT116 human colon cancer cells (400 cells) or SF 295 human glioblastoma cells (1000 cells) were plated in 60 mm Petri dishes containing 2.7 ml of medium (modified McCoy's 5a medium containing 10% fetal bovine serum and 100 units/ml penicillin and 100 μg/ml streptomycin). The cells were incubated in a CO2 incubator at 37° C. for 5 hours for attachment to the bottom of Petri dishes. Compounds were prepared fresh in medium at ten times the final concentration, and then 0.3 ml of this stock solution was added to the 2.7 ml of medium in the dish. The cells were then incubated with compounds for 72 hours at 37° C. At the end of incubation, the compound-containing media were decanted, the dishes were rinsed with 4 ml of Hank's Balance Salt Solution (HBSS), 5 ml of fresh medium was added, and the dishes were returned to the incubator for colony formation. The cell colonies were counted using a colony counter after incubation for 14 days for NCI/ADR-RES cells and 10 days for HCT116 cells and SF 295 cells. Cell survival was calculated and the IC50 values (the drug concentration producing 50% inhibition of colony formation) were determined for each tested compound.
One thousand SF 295 cells were plated in 60 mm Petri dishes containing 2.7 ml of medium (modified McCoy's 5a medium containing 10% fetal bovine serum and 100 units/ml penicillin and 100 μg/ml streptomycin). The cells were incubated in a CO2 incubator at 37° C. for 5 hours for attachment to the bottom of Petri dishes. Compounds were prepared fresh in medium at ten times the final concentration, and then 0.3 ml of this stock solution was added to the 2.7 ml of medium in the dish. The cells were then incubated with the compounds for 72 hours at 37° C. At the end of incubation, the compound-containing media were decanted, the dishes were rinsed with 4 ml of Hank's Balance Salt Solution (HBSS), 5 ml of fresh medium was added, and the dishes were returned to the incubator for colony formation. After incubation for 10 days, the cell colonies were counted using a colony counter. Cell survival was calculated and the values of IC50 were determined for each compound tested.

[2] = tested on: HCT116 human colon cancer cells; test: Colony formation assay, HCT116 cells; assay type: cell-based; conditions: 72 hours with compound, colonies counted after 24 days (Example 9), read-out: IC50
Experimental: as §1
Four hundred HCT116 cells were plated in 60 mm Petri dishes containing 2.7 ml of medium (modified McCoy's 5a medium containing 10% fetal bovine serum and 100 units/ml penicillin and 100 μg/ml streptomycin). The cells were incubated in a CO2 incubator at 37° C. for 5 hours for attachment to the bottom of Petri dishes. Compounds were prepared fresh in medium at ten times the final concentration, and then 0.3 ml of this stock solution was added to the 2.7 ml of medium in the dish. The cells were then incubated with drugs for 72 hours at 37° C. At the end of incubation the compound-containing media were decanted, the dishes were rinsed with 4 ml of Hank's Balance Salt Solution (HBSS), 5 ml of fresh medium was added, and the dishes were returned to the incubator for colony formation. HCT116 cell colonies were counted using a colony counter after […] of incubation. Cell survival was calculated and IC50 values were determined for each compound tested.

[3] = State of stock and injection solutions in water + co-solvents; assay type: physicochemical
Experimental: (§2) The solubility of D11B in various combinations of solvents was also analyzed. […] For the analysis of co-solvents, stock solutions were prepared by dissolving D11B in a corresponding solvent. Stock solutions of D11B in dimethylsulfoxide (DMSO) were prepared at 25° C., and stock solutions of D11B in PEG-400, CREMOPHOR® EL and Polysorbate 80 were prepared at 100° C. Injection solutions, in water (0.3 mg/ml), were prepared by dropwise addition of the stock solution to a required volume of vigorously stirred hot water (80° C.).
Additional solubility determinations were carried out with D11B×2AH in water+co-solvents. For this analysis, stock solutions were prepared by dissolving D11B×2AH in a corresponding solvent. Stock solutions of D11B×2AH in DMSO were prepared at 25° C. and stock solutions of D11B×2AH in PEG-400 were prepared at 100° C.
Injection solutions in water (0.3 mg/ml) were prepared by dropwise addition of each stock solution to a required volume of vigorously stirred water.

[4] = Solubility in solvents and buffers; assay type: physicochemical
Experimental: Characterization of D11B. The solubility of D11B in different solvents was analyzed (Table 1).
as §2
The solubility of D11B×2AH in DMSO, PEG-400, EtOH, and buffer was determined (Table 7).

[5] = tested on: normal C3H/HeN mice; test: Maximum tolerated dose (MTD40) in normal mice; conditions: suspension formulation, single intraperitoneal injection, 40 days
Experimental: The MTD40 (maximum tolerated dose at day 40) values were determined on normal C3H/HeN mice using standard procedures. […] The result of this exercise was two dosages, one apparently nonlethal and the other lethal, if severe and irreversible toxicity occurred and euthanasia was required. Six mice were dosed at each dosage. If no severe and irreversible toxicity occurred at the lower dosage and at least one with severe and irreversible toxicity at the higher dose, then the lower dose was considered to be the MTD.
Compounds were administered to C3H/HeN mice by intraperitoneal injection (5% alcohol, 5% CREMOPHOR® EL, and 90% saline, 0.5 ml/20 gram, single injection). Drug toxicity was evaluated on mice checked daily for 40 days. The toxicity parameters reported were the MTD40. […] At the end of experiment, all mice were euthanized.
The toxicity parameters reported were the MTD40. At the end of experiment, all mice will be euthanized.

[6] = Homo sapiens, HCT-116, HCT116 cells

IC50 [1]: > 5 µM | melting point: 372 °C
Structure (SMILES): c1nc(Nc2ccc(Oc3ccc(Nc4ncnc5[nH]cnc45)cc3)cc2)c2nc[nH]c2n1 [Compound D276]

melting point: 263 to 264 °C | IC50 ([2]; HCT116 cells): 3.34 µM
Structure (SMILES): c1cc(Nc2ccc(Oc3ccc(Nc4ccncc4)cc3)cc2)ccn1 [Compound 244B]

IC50 [1]: 1.42 µM | melting point: 114 to 115 °C
Structure (SMILES): c1ccc2c(c1)Cc1c-2nc2ccccc2c1Nc1ccc(Oc2ccc(Nc3c4c(nc5ccccc35)-c3ccccc3C4)cc2)cc1 [Compound D275]
Killing / inhibition of the growth of SF 295 human glioblastoma cells (in words) [1]: effective

IC50 [2, 6]: 4.22 µM
Structure (SMILES): c1cc(Nc2ccc(Oc3ccc(Nc4ccncc4)cc3)cc2)ccn1 [Compound D244]

Structure (SMILES): c1ccc2c(Nc3ccc(Oc4ccc(Nc5c6ccccc6nc6ccccc56)cc4)cc3)c3ccccc3nc2c1 [D11Bx2AH 1, D11B digluconate]
State of the stock solution ([3]; digluconate (1) in DMSO, 22 mg/ml): clear | State of the stock solution ([3]; digluconate (1) in DMSO, 31 mg/ml): clear | State of the injection solution ([3]; digluconate (1) in H2O—DMSO 0.3 mg/ml, stock 22 mg/ml, DMSO 1.50 wt. %): clear | State of the injection solution ([3]; digluconate (1) in H2O—DMSO 0.3 mg/ml, stock 31 mg/ml, DMSO 1.06 wt. %): clear | Solubility (mg/ml), 25° C. ([4]; D11Bx2AH salts, DMSO, listed as 1): 31 mg/mL | Solubility (mg/ml), 25° C. ([4]; D11Bx2AH salts, PEG-400, samples were dissolved at 100° C., listed as 1): >10 mg/mL | solubility ([4]; EtOH, 25 °C, organic solvent or mixture, D11Bx2AH salts, EtOH, read-out: Solubility (mg/ml), 25° C.): > 1 mg/mL | solubility ([4]; PEG-400, organic solvent or mixture, PEG-400 (Table 16), heating to 100° C. was required, read-out: Solubility): > 10 mg/mL | solubility ([4]; buffer, 25 °C, pH 4, aqueous buffer, D11Bx2AH salts, Buffer (pH = 4), even at 100° C., read-out: Solubility (mg/ml), 25° C.): > 0.5 mg/mL | solubility ([4]; buffer, 25 °C, pH 6, aqueous buffer, D11Bx2AH salts, Buffer (pH = 6), even at 100° C., read-out: Solubility (mg/ml), 25° C.): > 0.5 mg/mL

Structure (SMILES): c1ccc2c(Nc3ccc(Oc4ccc(Nc5ccnc6ccccc56)cc4)cc3)ccnc2c1 [Compound D245B]
Values of MTD40 [5]: 25 mg/kg | Killing / inhibition of the growth of SF 295 human glioblastoma cells (in words) [1]: effective | IC50 [1]: 0.133 µM | IC50 ([2]; HCT116 cells): 0.079 µM | IC50 [2, 6]: 0.122 µM

melting point: 338 to 340 °C | IC50 ([2]; HCT116 cells): 0.722 µM
Structure (SMILES): c1ccc2c(Nc3ccc(Oc4ccc(Nc5c6ccccc6nc6ncccc56)cc4)cc3)c3cccnc3nc2c1 [Compound 254B]

Structure (SMILES): c1ccc2c(Nc3ccc(Oc4ccc(Nc5c6ccccc6nc6ccccc56)cc4)cc3)c3ccccc3nc2c1 [D11Bx2AH 6, D11B digallate]
State of the stock solution ([3]; digalate (6) in DMSO, 20 mg/ml): clear | State of the stock solution ([3]; digalate (6) in DMSO, 39.9 mg/ml): clear | State of the stock solution ([3]; digalate (6) in DMSO, 77 mg/ml): clear | State of the stock solution ([3]; digalate (6) in DMSO, 158 mg/ml): clear | State of the stock solution ([3]; digalate (6) in DMSO, 325 mg/ml): clear | State of the injection solution ([3]; digalate (6) in H2O—DMSO 0.3 mg/ml, stock 20 mg/ml, DMSO 1.65 wt. %): clear | State of the injection solution ([3]; digalate (6) in H2O—DMSO 0.3 mg/ml, stock 39.9 mg/ml, DMSO 0.83 wt. %): clear | State of the injection solution ([3]; digalate (6) in H2O—DMSO 0.3 mg/ml, stock 325 mg/ml, DMSO 0.1 wt. %): prec. | Solubility (mg/ml), 25° C. ([4]; D11Bx2AH salts, DMSO, listed as 6): 325 mg/mL | Solubility (mg/ml) ([4]; PEG-400 (Table 16), heating to 100° C. was required, listed as digallate (6)): 20^a mg/ml | solubility ([4]; PEG-400, 25 °C, organic solvent or mixture, D11Bx2AH salts, PEG-400, samples were dissolved at 100° C., read-out: Solubility (mg/ml), 25° C.): 20 mg/mL

Structure (SMILES): c1ccc2c(Nc3ccc(Oc4ccc(Nc5c6ccccc6nc6ccccc56)cc4)cc3)c3ccccc3nc2c1 [D11Bx2AH 4, D11B dilactabionate]
State of the stock solution ([3]; dilactobionate (4) in DMSO, 20 mg/ml): clear | State of the stock solution ([3]; dilactobionate (4) in DMSO, 40 mg/ml): clear | State of the injection solution ([3]; dilactobionate (4) in H2O—DMSO 0.3 mg/ml, stock 20 mg/ml, DMSO 1.36 wt. %): clear | State of the injection solution ([3]; dilactobionate (4) in H2O—DMSO 0.3 mg/ml, stock 40 mg/ml, DMSO 0.68 wt. %): clear | Solubility (mg/ml), 25° C. ([4]; D11Bx2AH salts, DMSO, listed as 4): 40 mg/mL | Solubility (mg/ml), 25° C. ([4]; D11Bx2AH salts, PEG-400, samples were dissolved at 100° C., listed as 4): >10 mg/mL | Solubility (mg/ml) ([4]; PEG-400 (Table 16), heating to 100° C. was required, listed as dilactabionate (4)): >10^ mg/ml

IC50 [1]: > 5 µM | melting point: 362 °C
Structure (SMILES): c1ccc2c(Nc3ccc(Oc4ccc(Nc5cnnc6ccccc56)cc4)cc3)cnnc2c1 [Compound D284]

IC50 ([2]; HCT116 cells): 1.46 µM
Structure (SMILES): c1ccc2c(Nc3ccc(Oc4ccc(Nc5c6ccccc6nc6ncccc56)cc4)cc3)c3cccnc3nc2c1 [Compound D254]

IC50 [1]: > 5 µM | melting point: 110 to 112 °C
Structure (SMILES): c1ccc2c(Nc3ccc(Oc4ccc(Nc5nccc6ccccc56)cc4)cc3)nccc2c1 [Compound D278]

IC50 [1]: > 5 µM | melting point: 124 to 125 °C
Structure (SMILES): c1ccc2c(Nc3ccc(Oc4ccc(Nc5ncnc6ccccc56)cc4)cc3)ncnc2c1 [Compound D281]

Structure (SMILES): c1ccc2c(Nc3ccc(Oc4ccc(Nc5c6ccccc6nc6ccccc56)cc4)cc3)c3ccccc3nc2c1 [D11Bx2AH 7, D11B bis(3,4-dihydroxyphenylacetate)]
State of the stock solution ([3]; bis(3,4-dihydroxyphenylacetate) (7) in DMSO, 66 mg/ml): clear | State of the injection solution ([3]; bis(3,4-dihydroxyphenylacetate) (7) in H2O—DMSO 0.3 mg/ml, DMSO 0.5 wt. %): clear | Solubility (mg/ml), 25° C. ([4]; D11Bx2AH salts, DMSO, listed as 7): 66 mg/mL

Structure (SMILES): Cc1cc(Nc2ccc(Oc3ccc(Nc4cc(C)nc5ccccc45)cc3)cc2)c2ccccc2n1 [Compound D288]
Values of MTD40 [5]: 25 mg/kg | Killing / inhibition of the growth of SF 295 human glioblastoma cells (in words) [1]: effective | IC50 [1]: 0.085 µM
